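1) Cells in 96-well plates. 2) Compound, 48 h, 5 concentrations. 3) Linear interpolation between surrounding doses. 4) Unreached endpoint = highest concentration. GI50: concentration for 50% inhibition of growth.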 Active and inactive are the calls of the source. Rule as the data show it: active = GI50 up to about 1.1 µM and inactive = higher.
Assays:
Test in all cases: NCI anticancer screen, dose series, 48 h
[1] = tested on: UACC-257
[2] = tested on: MDA-N
[3] = tested on: A498
[4] = tested on: COLO 205
[5] = tested on: OVCAR-8
[6] = tested on: MOLT-4
[7] = tested on: PC-3
[8] = tested on: NCI-H460
[9] = tested on: CAKI-1
[10] = tested on: SK-MEL-2
[11] = tested on: SK-OV-3
[12] = tested on: LOX IMVI
[13] = tested on: HOP-92
[14] = tested on: NCI-H23
[15] = tested on: SF-268
[16] = tested on: T47D
[17] = tested on: BT-549
[18] = tested on: SNB-19
[19] = tested on: NCI-H522
[20] = tested on: MDA-MB-231

COc1c(C)c(C/C=C(\C)CCCCO[Si](c2ccccc2)(c2ccccc2)C(C)(C)C)c(OC)c(OC)c1OC
GI50 [1]: > 46.5 µM (inactive) | GI50 [2]: > 46.5 µM (inactive) | GI50 [3]: > 100 µM (inactive) | GI50 [4]: 20.6 µM (inactive) | GI50 [5]: 20.2 µM (inactive) | GI50 [6]: > 46.5 µM (inactive) | GI50 [7]: > 85.7 µM (inactive) | GI50 [8]: 14.6 µM (inactive) | GI50 [9]: 1.84 µM (inactive) | GI50 [10]: > 100 µM (inactive) | GI50 [11]: > 46.5 µM (inactive) | GI50 [12]: 15.5 µM (inactive) | GI50 [13]: > 31.6 µM (inactive) | GI50 [14]: 19.6 µM (inactive) | GI50 [15]: 65.5 µM (inactive) | GI50 [16]: > 83.9 µM (inactive) | GI50 [17]: > 46.5 µM (inactive) | GI50 [18]: > 46.5 µM (inactive) | GI50 [19]: 50.5 µM (inactive) | GI50 [20]: > 100 µM (inactive)

O=C1C2CCN(CC2)C1CN1CCOCC1 (stereo not given)
GI50 [1]: 4.33 µM (inactive) | GI50 [2]: 5.75 µM (inactive) | GI50 [3]: 16.8 µM (inactive) | GI50 [4]: 1.79 µM (inactive) | GI50 [5]: 5.02 µM (inactive) | GI50 [6]: 2.33 µM (inactive) | GI50 [7]: 20 µM (inactive) | GI50 [8]: 17.7 µM (inactive) | GI50 [9]: 2.16 µM (inactive) | GI50 [10]: 17.5 µM (inactive) | GI50 [11]: 17.2 µM (inactive) | GI50 [12]: 5.16 µM (inactive) | GI50 [13]: 1.9 µM (inactive) | GI50 [14]: 9.95 µM (inactive) | GI50 [15]: 13.7 µM (inactive) | GI50 [16]: 1.92 µM (inactive) | GI50 [17]: 2.28 µM (inactive) | GI50 [18]: 18.7 µM (inactive) | GI50 [19]: 0.689 µM (active) | GI50 [20]: 24.7 µM (inactive)

O=C(CCc1cc(O)cc(O)c1)NCCc1cc(O)cc(O)c1
GI50 [1]: > 100 µM (inactive) | GI50 [2]: > 100 µM (inactive) | GI50 [3]: > 100 µM (inactive) | GI50 [4]: > 100 µM (inactive) | GI50 [5]: > 100 µM (inactive) | GI50 [6]: > 100 µM (inactive) | GI50 [7]: > 100 µM (inactive) | GI50 [8]: > 100 µM (inactive) | GI50 [9]: > 100 µM (inactive) | GI50 [10]: > 100 µM (inactive) | GI50 [11]: > 100 µM (inactive) | GI50 [12]: > 100 µM (inactive) | GI50 [13]: > 100 µM (inactive) | GI50 [14]: > 100 µM (inactive) | GI50 [15]: > 100 µM (inactive) | GI50 [16]: > 100 µM (inactive) | GI50 [17]: > 100 µM (inactive) | GI50 [18]: > 100 µM (inactive) | GI50 [19]: > 100 µM (inactive) | GI50 [20]: > 100 µM (inactive)

O=C1Nc2ccc([N+](=O)[O-])cc2/C1=N/NC(=S)Nc1ccc([N+](=O)[O-])cc1
GI50 [1]: 20.8 µM (inactive) | GI50 [2]: 17.9 µM (inactive) | GI50 [3]: 18.2 µM (inactive) | GI50 [4]: 36 µM (inactive) | GI50 [5]: 31.5 µM (inactive) | GI50 [6]: 35.9 µM (inactive) | GI50 [7]: 24.2 µM (inactive) | GI50 [8]: 19.7 µM (inactive) | GI50 [9]: 21.6 µM (inactive) | GI50 [10]: 18.5 µM (inactive) | GI50 [11]: 22.4 µM (inactive) | GI50 [12]: 22.2 µM (inactive) | GI50 [13]: 18.5 µM (inactive) | GI50 [14]: 19.9 µM (inactive) | GI50 [15]: 32.6 µM (inactive) | GI50 [16]: 19.1 µM (inactive) | GI50 [17]: 16.4 µM (inactive) | GI50 [18]: 26.2 µM (inactive) | GI50 [19]: 30.9 µM (inactive) | GI50 [20]: 24.7 µM (inactive)

CC1(C)CCC(C)(C)c2cc(NC(=O)c3ccc(C(=O)O)cc3)ccc21 [TAMIBAROTENE]
GI50 [1]: 29.4 µM (inactive) | GI50 [2]: 25.6 µM (inactive) | GI50 [3]: 23.7 µM (inactive) | GI50 [4]: 23.9 µM (inactive) | GI50 [5]: 41.5 µM (inactive) | GI50 [6]: 30.7 µM (inactive) | GI50 [7]: 25.8 µM (inactive) | GI50 [8]: 21.3 µM (inactive) | GI50 [9]: 47.6 µM (inactive) | GI50 [10]: 25.6 µM (inactive) | GI50 [11]: 28 µM (inactive) | GI50 [12]: 22.9 µM (inactive) | GI50 [13]: 24.7 µM (inactive) | GI50 [14]: 23.2 µM (inactive) | GI50 [15]: 34.8 µM (inactive) | GI50 [16]: 33.7 µM (inactive) | GI50 [17]: 25.7 µM (inactive) | GI50 [18]: 32.8 µM (inactive) | GI50 [19]: 36.6 µM (inactive) | GI50 [20]: > 49.1 µM (inactive)
